The values below come from US20240058335A1, “METHODS FOR TREATMENT OF CANCER USING ABL INHIBITORS AND DRUGS TARGETING THE MEVALONATE PATHWAY” (Duke University, priority 2021, published 2024).

The structures appear in SMILES notation.

The test system of assay [1] is PC9, PC9 GR4 and H460 cells. The assay is described as follows: MitoSOX staining, mitochondrial ROS by FACS. The settings on record: EGFR mutant PC9 and PC9 GR4 cells, IC50 doses, 24 hours. Type of assay: cell-based, human.
A further assay relates to HCC1954-LCC1 cells. The assay is described as follows: Intracranial injection model of HER2+ breast cancer brain metastasis. As to conditions: oral gavage. Type of assay: in vivo, mice. As for the experimental part: Nude mice were injected intracranially with HCC1954-LCC1 cells on Day 0. On Day 10, mice were divided evenly between treatment groups (Vehicle or GNF5) based on tumor burden and weight. Tumors were monitored weekly by BLI until experimental endpoint (Day 55). (FIG. 15A) Overall survival curve of nude mice injected intracranially with HCC1954-LCC1 and treated with vehicle (n=9) or GNF5 (n=10) and representative BLI images of mice at day 33 post-injection. (FIG. 16B) Overall survival curve of nude mice injected intracranially with HCC1954-LCC1 ABL1/2 KO (n=15) or control cells (n=15) and representative of BLI images of mice at day 21 post-injection. Statistical analysis was performed using Log-rank (Mantel-Cox) test.

The test system of assay [2] is lung cancer cells (PC9, PC9 GR4, PC9 BrM3, H460, H358). The experiment in a line: 72 hr growth inhibition / cell viability assay with drug combinations and metabolite rescue. It is filed as cell-based, human. The settings on record: PC9-BrM3, sub-therapeutic doses, 72 hrs.
The subject of the next assay is PC9 cells. As to conditions: read-out: Calculated IC50, dose-response assay.
The test system of a further assay is H460 cells. The experiment in a line: Cell viability dose-response assay (CellTiter-Glo), IC50 calculation. It is filed as cell-based, human. The settings on record: H460; dose-response assay; read-out: Calculated IC50.
The test system of a further assay is PC9 BrM3 cells. The description is as above. It is filed as cell-based, human. As to conditions: PC9 BrM3; dose-response assay; read-out: Calculated IC50.

For the compound `O=C(NCCO)c1cccc(-c2cc(Nc3ccc(OC(F)(F)F)cc3)ncn2)c1` [GNF5], the “mitochondrial reactive oxygen species (MitoROS) levels” value in assay [1] is given as “increased”. Also, the animal survival result in the assay with HCC1954-LCC1 cells was “markedly increased animal survival”. Besides, the “metastatic outgrowth and brain colonization (BLI)” value in the assay on HCC1954-LCC1 cells was “impaired metastatic outgrowth and colonization of the brain parenchyma”. Further, the “cell survival in the presence of statins” value in assay [2] is reported as “decreased cell survival”. For the same compound, the IC50 in the assay on PC9 cells was 10 µM; in the assay with H460 cells, 15 µM; with PC9 BrM3 cells, 10 µM.
